The data set deals with T1, CYP1A2 (Homo sapiens, UniProt P05177).
T1 sequence (P05177 2-516 limits assumed): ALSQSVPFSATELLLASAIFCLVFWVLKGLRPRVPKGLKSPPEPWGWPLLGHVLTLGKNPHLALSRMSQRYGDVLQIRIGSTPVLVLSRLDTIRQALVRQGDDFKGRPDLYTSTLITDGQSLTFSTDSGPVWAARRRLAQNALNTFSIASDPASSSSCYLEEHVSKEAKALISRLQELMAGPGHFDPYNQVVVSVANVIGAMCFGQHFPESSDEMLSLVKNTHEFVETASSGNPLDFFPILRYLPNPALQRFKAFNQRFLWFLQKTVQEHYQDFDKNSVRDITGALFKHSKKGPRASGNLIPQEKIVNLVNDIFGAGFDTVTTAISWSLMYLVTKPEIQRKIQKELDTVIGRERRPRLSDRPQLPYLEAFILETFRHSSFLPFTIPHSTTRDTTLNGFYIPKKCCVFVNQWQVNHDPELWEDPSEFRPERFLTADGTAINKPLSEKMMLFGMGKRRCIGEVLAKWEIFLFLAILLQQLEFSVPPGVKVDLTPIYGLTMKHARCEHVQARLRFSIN
The data set can be described thus: MONACRA demethylation by recombinant CYP1A2 in Supersomes, high-throughput fluorimetric assay. It counts as biochemical. Further details: purchased Gentest (Supersomes), now a part of Discovery Life Sciences; CYP1A2 is not in the lot list; host or cells: insect cells, recombinant baculovirus. How it is done: Based on these observations, we developed a high-throughput automated assay applicable for studying SSPs of MONACRA metabolism by microsomal P450 enzymes. In this procedure, the incubation mixtures containing an NADPH-generating system and various substrate concentrations are placed in a multiwell plate and preincubated at 30°C in a thermostated shaker. The reaction is started by adding microsomal suspension to the final concentration of 0.3–1 mg/ml of microsomal protein or 0.02–0.1 µM of recombinant P450 enzymes in Supersomes. Following the incubation for 20 min at 30°C, the reaction is quenched by adding trichloroacetic acid (final concentration […]). After supplementing the wells with Na-glycine buffer (pH 10.4, final concentration 2.1 M), the plates are subjected to scanning the fluorescence spectra with excitation at 375 nm. This assay, which is described in detail in Materials and Methods, allows reliable detection of the concentrations of HONACRA as low as 0.1 µM.
We used the high-throughput activity assay described above to probe MONACRA metabolism by 16 human microsomal P450 enzymes, namely CYP1A2, CYP2A6, CYP2B6, CYP2C8, CYP2C9, CYP2C19, CYP2D6, CYP2E1, CYP2J2, CYP3A4, CYP3A5, CYP4A11, CYP4F2, CYP4F3A, CYP4F3B, and CYP4F12. […]

Each structure is given as a SMILES string. Where “and” joins values, the source holds several entries; their conditions need not be identical. Identical values can stand only once.

On to `COc1ccc2cc(C=CC(=O)O)ccc2c1` [MONACRA, 3-(6-methoxynaphthalen-2-yl)acrylic acid], for which the Vmax (substrate inhibition equation) stood at 43.7 ± 5.9 min⁻¹. The “Ksi (substrate inhibition constant)” value (substrate inhibition equation (eqn 2)) was 650 ± 200 µM and 648 ± 197 µM.

The values above are taken from article PMC12191924, “A new naphthalene-based fluorogenic substrate for cytochrome P450 4A11” (Biochemical Journal, 2025).
